Results taken from ChEMBL document CHEMBL5543156, “Selective Elimination of Senescent Cancer Cells by Galacto-Modified PROTACs” (J Med Chem, 2024).
pIC50: −log10 of the molar value. Activity calls are given as the source filed them. No cut-off for these calls is given here.

What was measured:
A549 [1] = assay: Induction of apoptosis in human senescent A549 cells assessed as necrotic cells at 1 uM incubated for 24 hrs by FITC/PI staining based flow cytometry analysis (reference value: 0.15%); type: functional
A549 [2] = assay: Antitumor activity against human A549 cells xenografted in SCID mouse assessed as reduction in ki67 level in tumor at 20 mg/kg, sc administered daily for 19 days in presence of etoposide by IHC analysis; type: functional, organism-based; settings: time 19.0 day
[3] = Stability of the compound in fetal bovine serum incubated for 24 hrs by Real-tie ultrafast liquid chromatography analysis; type: ADME, cell-free, Bos taurus; settings: cattle
A549 [4] = assay: Antitumor activity against human A549 cells xenografted in SCID mouse assessed as reduction in BRD4 level in tumor at 20 mg/kg, sc administered daily for 19 days by IHC analysis; type: functional, organism-based; settings: time 19.0 day
A549 [5] = assay: Induction of apoptosis in human senescent A549 cells assessed as early apoptotic cells at 1 uM incubated for 24 hrs by FITC/PI staining based flow cytometry analysis (reference value: 0.68%); type: functional
A549 [6] = assay: Induction of apoptosis in human normal (non-senescent) A549 cells assessed as viable cells at 1 uM incubated for 24 hrs by FITC/PI staining based flow cytometry analysis (reference value: 94.6%); type: functional; settings: read-out: Activity
[7] = target: T1, Bromodomain-containing protein 4 (Homo sapiens, UniProt O60885); assay: Induction of BRD4 degradation in human A549 cells at 50 nM incubated for 16 hrs in presence of MG-132 by Western blot analysis; type: cell-based
[8] = target: T1, Bromodomain-containing protein 4; assay: Induction of BRD4 degradation in etoposide-induced human senescent A549 cells at 100 nM pretreated with etoposide for 3 days followed by compound administration and measured after 15 mins by SA-beta-Gal staining assay; type: cell-based
A549 [9] = assay: Induction of apoptosis in human senescent A549 cells assessed as late apoptotic cells at 1 uM incubated for 24 hrs by FITC/PI staining based flow cytometry analysis (reference value: 12.2%); type: functional
[10] = target: T1, Bromodomain-containing protein 4; assay: Induction of BRD4 degradation in etoposide-induced human senescent A549 cells pretreated with etoposide for 3 days followed by compound administration and measured after 15 mins by SA-beta-Gal staining assay; type: cell-based
A549 [11] = assay: Induction of apoptosis in human normal (non-senescent) A549 cells assessed as early apoptotic cells at 1 uM incubated for 24 hrs by FITC/PI staining based flow cytometry analysis (reference value: 3.14%); type: functional
A549 [12] = assay: Downregulation of BRD4 expression in etoposide-induced human senescent A549 cells at 50 nM incubated for 16 hrs by Proteomic analysis; type: functional, cell-based
[13] = Stability of the compound assessed as porcine liver esterase-mediated hydrolysis measured at 16 hrs by Real-time ultrafast liquid chromatography analysis; type: ADME, Sus scrofa; settings: pig, isolated protein
A549 [14] = assay: Induction of apoptosis in human normal (non-senescent) A549 cells assessed as late apoptotic cells at 1 uM incubated for 24 hrs by FITC/PI staining based flow cytometry analysis (reference value: 1.97%); type: functional
A549 [15] = assay: Antitumor activity against human A549 cells xenografted in SCID mouse assessed as tumor growth inhibition at 20 mg/kg, sc administered daily for 19 days; type: functional; settings: A549, 456 h, time 19 day, read-out: TGI
A549 [16] = assay: Effect on ARGAL level in etoposide-induced human senescent A549 cells at 50 nM incubated for 16 hrs by Proteomic analysis; type: functional, cell-based
[17] = target: T1, Bromodomain-containing protein 4; assay: Induction of BRD4 degradation in human U87 cells by SA-beta-Gal staining assay; type: cell-based
A549 [18] = assay: Antiproliferative activity against human senescent A549 cells assessed as reduction in cell viability incubated for 72 hrs by CCK-8 assay; type: functional, cell-based; settings: A549, 72 h
[19] = target: T1, Bromodomain-containing protein 4; assay: Induction of BRD4 degradation in human HeLa cells by SA-beta-Gal staining assay; type: cell-based
A549 [20] = assay: Antiproliferative activity against human normal (non-senescent) A549 cells assessed as reduction in cell viability incubated for 72 hrs by CCK-8 assay; type: functional, cell-based; settings: A549, 72 h
A549 [21] = assay: Senolytic index, ratio of IC50 for antiproliferative activity against human normal (non-senescent) A549 cells assessed as reduction in cell viability to IC50 for antiproliferative activity against human senescent A549 cells assessed as reduction in cell viability; type: functional
[22] = target: T1, Bromodomain-containing protein 4; assay: Induction of BRD4 degradation in etoposide-induced human senescent U87 cells by SA-beta-Gal staining assay; type: cell-based
[23] = Toxicity in SCID mouse xenografted with human A549 cells change in body weight at 20 mg/kg, sc administered daily for 19 days; type: organism-based; settings: in vivo, 456 h, time 19 day
[24] = target: T1, Bromodomain-containing protein 4; assay: Induction of BRD4 degradation in etoposide-induced human senescent A549 cells incubated for 16 hrs by Western blot analysis; type: cell-based
A549 [25] = assay: Effect on BTBD8 level in etoposide-induced human senescent A549 cells at 50 nM incubated for 16 hrs by Proteomic analysis; type: functional, cell-based
A549 [26] = assay: Antitumor activity against human A549 cells xenografted in SCID mouse assessed as decrease in p21 level in tumor at 20 mg/kg, sc administered daily for 19 days in presence of etoposide by IHC analysis; type: functional, organism-based; settings: time 19.0 day
A549 [27] = assay: Antitumor activity against etoposide-induced human A549 cells xenografted in SCID mouse assessed as tumor growth inhibition at 20 mg/kg, sc administered daily for 19 days; type: functional, organism-based; settings: time 19.0 day
A549 [28] = assay: Antitumor activity against human A549 cells xenografted in SCID mouse assessed as increase in cleaved caspase-3 level in tumor at 20 mg/kg, sc administered daily for 19 days in presence of etoposide by IHC analysis; type: functional, organism-based; settings: time 19.0 day
A549 [29] = assay: Induction of apoptosis in human normal (non-senescent) A549 cells assessed as necrotic cells at 1 uM incubated for 24 hrs by FITC/PI staining based flow cytometry analysis (reference value: 0.29%); type: functional
[30] = target: T1, Bromodomain-containing protein 4; assay: Induction of BRD4 degradation in etoposide-induced human senescent HeLa cells by SA-beta-Gal staining assay; type: cell-based
A549 [31] = assay: Induction of apoptosis in human senescent A549 cells assessed as viable cells at 1 uM incubated for 24 hrs by FITC/PI staining based flow cytometry analysis (reference value: 86.9%); type: functional; settings: read-out: Activity
[32] = target: T2, NPM/ALK (Nucleophosmin/ALK tyrosine kinase receptor) (Homo sapiens) (UniProt Q9UM73+P06748); assay: Induction of NPM-ALK degradation in human senescent KARPAS-299 cells at 1 uM incubated for 16 hrs by Western blot analysis; type: cell-based
T2 sequence (P06748 whole entry partner): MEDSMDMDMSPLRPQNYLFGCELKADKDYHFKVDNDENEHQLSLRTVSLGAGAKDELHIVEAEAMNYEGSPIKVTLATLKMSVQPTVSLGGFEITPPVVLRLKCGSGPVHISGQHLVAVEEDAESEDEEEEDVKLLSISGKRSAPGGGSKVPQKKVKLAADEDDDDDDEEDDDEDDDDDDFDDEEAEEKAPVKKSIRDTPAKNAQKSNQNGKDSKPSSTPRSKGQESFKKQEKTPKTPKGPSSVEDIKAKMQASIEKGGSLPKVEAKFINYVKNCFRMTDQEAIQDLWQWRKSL
T2 sequence (Q9UM73 19-1620 limits assumed): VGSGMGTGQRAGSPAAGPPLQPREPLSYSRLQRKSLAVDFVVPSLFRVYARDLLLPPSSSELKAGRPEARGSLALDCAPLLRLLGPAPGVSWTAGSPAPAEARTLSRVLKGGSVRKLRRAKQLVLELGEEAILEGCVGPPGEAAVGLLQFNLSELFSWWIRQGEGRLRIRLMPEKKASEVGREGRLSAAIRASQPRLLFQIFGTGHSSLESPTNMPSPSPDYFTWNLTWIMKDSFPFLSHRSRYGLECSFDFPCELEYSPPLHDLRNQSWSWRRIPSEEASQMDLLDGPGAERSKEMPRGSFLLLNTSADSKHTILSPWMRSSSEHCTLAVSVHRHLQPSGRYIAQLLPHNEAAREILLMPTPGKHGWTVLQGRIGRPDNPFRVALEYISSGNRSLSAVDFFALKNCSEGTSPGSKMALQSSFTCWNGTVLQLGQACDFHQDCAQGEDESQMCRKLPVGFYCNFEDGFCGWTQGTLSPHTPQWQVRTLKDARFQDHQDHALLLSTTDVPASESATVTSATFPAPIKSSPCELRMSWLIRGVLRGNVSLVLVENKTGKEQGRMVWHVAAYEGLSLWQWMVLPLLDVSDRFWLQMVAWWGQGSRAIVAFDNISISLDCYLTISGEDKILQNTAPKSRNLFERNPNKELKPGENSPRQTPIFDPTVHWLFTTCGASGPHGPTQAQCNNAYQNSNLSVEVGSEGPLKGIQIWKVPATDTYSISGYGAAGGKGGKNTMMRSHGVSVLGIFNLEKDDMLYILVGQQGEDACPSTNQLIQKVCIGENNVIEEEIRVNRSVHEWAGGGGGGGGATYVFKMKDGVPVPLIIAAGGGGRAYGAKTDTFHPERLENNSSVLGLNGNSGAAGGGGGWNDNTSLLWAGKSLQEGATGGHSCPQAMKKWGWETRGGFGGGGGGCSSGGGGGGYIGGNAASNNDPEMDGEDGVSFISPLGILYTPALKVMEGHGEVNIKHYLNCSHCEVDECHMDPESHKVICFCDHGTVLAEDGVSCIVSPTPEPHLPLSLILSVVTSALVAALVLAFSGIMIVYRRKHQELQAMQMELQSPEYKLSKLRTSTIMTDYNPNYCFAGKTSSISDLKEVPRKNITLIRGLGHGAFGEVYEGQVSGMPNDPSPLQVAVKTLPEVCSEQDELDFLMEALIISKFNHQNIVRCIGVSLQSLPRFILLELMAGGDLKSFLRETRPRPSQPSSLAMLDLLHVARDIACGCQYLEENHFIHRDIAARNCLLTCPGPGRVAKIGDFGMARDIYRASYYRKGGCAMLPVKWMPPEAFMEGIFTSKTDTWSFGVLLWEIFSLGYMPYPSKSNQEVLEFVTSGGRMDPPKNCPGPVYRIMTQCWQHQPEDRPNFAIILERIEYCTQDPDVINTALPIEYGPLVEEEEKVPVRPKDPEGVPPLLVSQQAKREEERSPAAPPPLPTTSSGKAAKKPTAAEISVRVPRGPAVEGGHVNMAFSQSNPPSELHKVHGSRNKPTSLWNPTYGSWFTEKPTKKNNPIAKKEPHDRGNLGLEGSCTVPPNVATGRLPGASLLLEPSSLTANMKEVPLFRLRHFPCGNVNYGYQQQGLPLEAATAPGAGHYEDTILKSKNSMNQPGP

KARPAS-299 [33] = assay: Antiproliferative activity against human normal (non-senescent) KARPAS-299 cells assessed as reduction in cell viability incubated for 72 hrs by CCK-8 assay; type: functional, cell-based; settings: KARPAS-299, 72 h
KARPAS-299 [34] = assay: Antiproliferative activity against human senescent KARPAS-299 cells assessed as reduction in cell viability incubated for 72 hrs by CCK-8 assay; type: functional, cell-based; settings: KARPAS-299, 72 h
KARPAS-299 [35] = assay: Senolytic index, ratio of IC50 for antiproliferative activity against human normal (non-senescent) KARPAS-299 cells assessed as reduction in cell viability to IC50 for antiproliferative activity against human senescent KARPAS-299 cells assessed as reduction in cell viability; type: functional
[36] = target: T2, NPM/ALK (Nucleophosmin/ALK tyrosine kinase receptor) (Homo sapiens); assay: Induction of NPM-ALK degradation in human normal (non-senescent) KARPAS-299 cells at 1 uM incubated for 16 hrs by Western blot analysis; type: cell-based
[37] = target: T1, Bromodomain-containing protein 4; assay: Induction of BRD4 degradation in human normal (non-senescent) A549 cells at 50 to 100 nM by SA-beta-Gal staining assay; type: cell-based; settings: dose 50-100 nM

| Compound | Activity (A549 [1]) | Activity (A549 [5]) | viability at 1 µM (A549 [6]) | Activity [7] | Activity (A549 [9]) | Activity [10] | Activity (A549 [11]) | Activity (A549 [14]) | inhibition in vivo at 20 mg/kg (A549 [15]) | pIC50 (A549 [18]) | pIC50 (A549 [20]) | Ratio IC50 (A549 [21]) | Activity [23] | Activity (A549 [29]) | viability at 1 µM (A549 [31]) | Activity [32] | pIC50 (KARPAS-299 [33]) | pIC50 (KARPAS-299 [34]) | Ratio IC50 (KARPAS-299 [35]) | further results |
| --- | --- | --- | --- | --- | --- | --- | --- | --- | --- | --- | --- | --- | --- | --- | --- | --- | --- | --- | --- | --- |
| CC(=O)OC[C@H]1O[C@@H](Oc2ccc(COC(=O)O[C@@H]3C[C@@H](C(=O)N[C@@H](C)c4ccc(-c5scnc5C)cc4)N(C(=O)[C@@H](NC(=O)COCCCOCCNC(=O)C[C@@H]4N=C(c5ccc(Cl)cc5)c5c(sc(C)c5C)-n5c(C)nnc54)C(C)(C)C)C3)cc2)[C@H](OC(C)=O)[C@@H](OC(C)=O)[C@H]1OC(C)=O | 0.1% | 16.7% | 86.5% | Active | 14.8% | Active | 8.07% | 4.72% | 80% | 6.45 | 5.48 | 5.17 | Non-Toxic | 0.68% | 68.3% | – | – | – | – | Activity (A549 [2]): Active; Stability [3]: Stable; Activity (A549 [4]): Active; Activity [8]: Active; Activity (A549 [12]): Active; Stability [13]: Stable; Activity (A549 [16]): Active; Activity [17]: Active; Activity [19]: Active; Activity [22]: Active; DC50 [24]: 18.3 nM; Activity (A549 [25]): Active; Activity (A549 [26]): Active; TGI (A549 [27]): Active; Activity (A549 [28]): Active; Activity [30]: Active |
| Cc1cc(Nc2ncc(Cl)c(Nc3ccccc3S(=O)(=O)C(C)C)n2)c(OC(C)C)cc1C1CCN(C(=O)CCCC(=O)N[C@H](C(=O)N2C[C@H](O)C[C@H]2C(=O)N[C@@H](C)c2ccc(-c3scnc3C)cc2)C(C)(C)C)CC1 | – | – | – | – | – | – | – | – | – | – | – | – | – | – | – | Active | 6.43 | 6.63 | 1.59 | – |
| CC(=O)OC[C@H]1O[C@@H](Oc2ccc(COC(=O)O[C@@H]3C[C@@H](C(=O)N[C@@H](C)c4ccc(-c5scnc5C)cc4)N(C(=O)[C@@H](NC(=O)CCCC(=O)N4CCC(c5cc(OC(C)C)c(Nc6ncc(Cl)c(Nc7ccccc7S(=O)(=O)C(C)C)n6)cc5C)CC4)C(C)(C)C)C3)cc2)[C@H](OC(C)=O)[C@@H](OC(C)=O)[C@H]1OC(C)=O | – | – | – | – | – | – | – | – | – | – | – | – | – | – | – | Active | 5.67 | 6.34 | 4.75 | Activity [36]: inactive |
| Cc1ncsc1-c1ccc([C@H](C)NC(=O)[C@@H]2C[C@@H](O)CN2C(=O)[C@@H](NC(=O)COCCCOCCNC(=O)C[C@@H]2N=C(c3ccc(Cl)cc3)c3c(sc(C)c3C)-n3c(C)nnc32)C(C)(C)C)cc1 | 0.09% | 17% | 72.2% | Active | 14.2% | Active | 20.1% | 6.76% | 74% | 6.22 | 6.19 | 0.59 | Non-Toxic | 0.98% | 68.7% | – | – | – | – | Activity [37]: Active |
